Measured values: article PMC3914206

Experiments:
Format in all cases: binding
[1] = target: T1, panel of 442 kinases (Homo sapiens, UniProt O75676); details: Compound Concentration 10 µM
T1 construct: purchased KINOMEscan
From the text: (§1) We assessed the selectivity of members of this scaffold using the KINOMEscan methodology across a near comprehensive panel of 442 kinases [[18,27]].

[2] = target: T2, panel of 442 kinases (Homo sapiens, UniProt P78362); details: kinase SRPK2; compound concentration 10 µM
T2 construct: purchased KINOMEscan
From the text: as §1

[3] = target: T3, panel of 442 kinases (Homo sapiens, UniProt P78368); details: Compound Concentration 10 µM
T3 construct: purchased KINOMEscan
From the text: as §1

T3 sequence (P78368 whole entry): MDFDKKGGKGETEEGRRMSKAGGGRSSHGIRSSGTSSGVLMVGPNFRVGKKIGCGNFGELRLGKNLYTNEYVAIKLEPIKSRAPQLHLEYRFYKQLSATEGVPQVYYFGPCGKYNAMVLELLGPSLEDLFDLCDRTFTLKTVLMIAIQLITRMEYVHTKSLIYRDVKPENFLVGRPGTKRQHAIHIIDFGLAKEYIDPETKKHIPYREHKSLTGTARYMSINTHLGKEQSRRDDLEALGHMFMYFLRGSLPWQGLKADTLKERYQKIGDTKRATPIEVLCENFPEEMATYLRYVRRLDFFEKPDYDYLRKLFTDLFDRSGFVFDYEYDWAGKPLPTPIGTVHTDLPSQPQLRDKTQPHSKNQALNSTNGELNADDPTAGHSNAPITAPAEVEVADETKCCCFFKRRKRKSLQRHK
T1 sequence (O75676 whole entry): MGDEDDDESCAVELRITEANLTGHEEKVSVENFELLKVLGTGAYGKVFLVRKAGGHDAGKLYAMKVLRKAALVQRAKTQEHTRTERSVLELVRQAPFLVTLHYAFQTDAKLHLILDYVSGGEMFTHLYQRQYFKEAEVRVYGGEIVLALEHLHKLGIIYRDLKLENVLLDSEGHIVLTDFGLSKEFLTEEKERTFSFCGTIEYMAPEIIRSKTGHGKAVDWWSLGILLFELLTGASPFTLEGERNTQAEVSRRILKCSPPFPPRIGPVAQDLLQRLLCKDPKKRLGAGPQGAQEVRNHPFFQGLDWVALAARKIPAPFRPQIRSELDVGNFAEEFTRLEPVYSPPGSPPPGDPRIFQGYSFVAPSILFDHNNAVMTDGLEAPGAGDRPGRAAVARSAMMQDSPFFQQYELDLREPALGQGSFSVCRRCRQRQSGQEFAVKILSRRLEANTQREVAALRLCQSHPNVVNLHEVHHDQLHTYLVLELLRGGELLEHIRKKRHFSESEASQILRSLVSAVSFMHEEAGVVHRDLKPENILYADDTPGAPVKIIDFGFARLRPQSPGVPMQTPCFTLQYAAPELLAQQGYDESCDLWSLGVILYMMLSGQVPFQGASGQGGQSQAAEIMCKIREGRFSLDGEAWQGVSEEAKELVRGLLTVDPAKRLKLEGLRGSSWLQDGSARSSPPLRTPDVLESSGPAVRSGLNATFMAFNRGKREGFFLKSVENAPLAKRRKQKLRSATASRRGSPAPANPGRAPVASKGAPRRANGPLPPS
T2 sequence (P78362 whole entry): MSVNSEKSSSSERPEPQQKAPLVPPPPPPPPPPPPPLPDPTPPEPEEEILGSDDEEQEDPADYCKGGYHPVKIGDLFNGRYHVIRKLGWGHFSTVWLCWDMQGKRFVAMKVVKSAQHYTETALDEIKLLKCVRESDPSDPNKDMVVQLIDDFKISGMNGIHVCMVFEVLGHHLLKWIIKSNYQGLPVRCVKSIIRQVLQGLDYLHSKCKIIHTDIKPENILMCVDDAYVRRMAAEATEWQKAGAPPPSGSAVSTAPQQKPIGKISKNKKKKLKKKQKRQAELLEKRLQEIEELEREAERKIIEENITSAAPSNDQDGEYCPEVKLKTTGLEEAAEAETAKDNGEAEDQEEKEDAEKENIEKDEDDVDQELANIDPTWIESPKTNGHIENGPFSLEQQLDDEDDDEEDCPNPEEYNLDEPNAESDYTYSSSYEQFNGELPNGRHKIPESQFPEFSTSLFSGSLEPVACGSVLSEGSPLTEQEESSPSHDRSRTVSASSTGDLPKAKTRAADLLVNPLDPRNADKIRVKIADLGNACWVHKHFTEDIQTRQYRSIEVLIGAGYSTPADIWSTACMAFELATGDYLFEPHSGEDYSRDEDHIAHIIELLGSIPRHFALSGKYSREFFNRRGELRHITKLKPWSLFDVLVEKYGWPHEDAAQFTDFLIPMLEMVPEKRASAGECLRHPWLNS

| Structure (SMILES) | KINOMEscan: RPS6KA4(Kin.Dom.1-N-terminal) [1] | KINOMEscan: RPS6KA4(Kin.Dom.2-C-terminal) [1] | % Ctrl, SRPK2 [2] [% Ctrl] | KINOMEscan: CSNK1G2 [3] |
| --- | --- | --- | --- | --- |
| CCOc1cc(C(=O)N2CCC(N3CCN(C)CC3)CC2)ccc1Nc1ncc2c(n1)N(C1CCCC1)c1ccccc1C(=O)N2C [Compound 26] | 100 | 100 | 100 | 96 |
| COc1cc(C(=O)N2CCC(N3CCN(C)CC3)CC2)ccc1Nc1ncc2c(n1)N(C1CCCC1)c1ccccc1C(=O)N2C [Compound 25, 11-cyclopentyl-2-((2-methoxy-4-(4-(4-methylpiperazin-1-yl)piperidine-1-carbonyl)phenyl)amino)-5-methyl-5H-benzo[e]pyrimido[5,4-b][1,4]diazepin-6(11H)-one] | 100 | 100 | 86 | 91 |
| COc1cc(C(=O)N2CCC(N3CCN(C)CC3)CC2)ccc1Nc1ncc2c(n1)N1CCc3cccc(c31)C(=O)N2C [Compound 24] |  | 0.65 | 98 |  |
| COc1cc(C(=O)N2CCC(N3CCN(C)CC3)CC2)ccc1Nc1ncc2c(n1)N(C)c1ccccc1C(=O)N2C [15 (LRRK2-IN-1)] | 100 | 46 | 100 | 100 |
